Read-outs that look alike come from different tables or passages of the source.
Tests used:
Assay in all cases: Kinase activity test (ReactionBiology), % enzyme activity relative to DMSO
Format in all cases: biochemical
DAPK1 = molecular target: T1, DAPK1 (Homo sapiens, UniProt P53355); settings: DAPK1
T1 construct: purchased ReactionBiology

CK1d = molecular target: T2, CK1d (Homo sapiens, UniProt P48730); settings: CK1d; for % Enzyme Activity (relative to DMSO controls), Data 1: replicate Data 1; for % Enzyme Activity (relative to DMSO controls), Data 2: replicate Data 2
T2 construct: purchased ReactionBiology
T2 sequence (P48730 whole entry): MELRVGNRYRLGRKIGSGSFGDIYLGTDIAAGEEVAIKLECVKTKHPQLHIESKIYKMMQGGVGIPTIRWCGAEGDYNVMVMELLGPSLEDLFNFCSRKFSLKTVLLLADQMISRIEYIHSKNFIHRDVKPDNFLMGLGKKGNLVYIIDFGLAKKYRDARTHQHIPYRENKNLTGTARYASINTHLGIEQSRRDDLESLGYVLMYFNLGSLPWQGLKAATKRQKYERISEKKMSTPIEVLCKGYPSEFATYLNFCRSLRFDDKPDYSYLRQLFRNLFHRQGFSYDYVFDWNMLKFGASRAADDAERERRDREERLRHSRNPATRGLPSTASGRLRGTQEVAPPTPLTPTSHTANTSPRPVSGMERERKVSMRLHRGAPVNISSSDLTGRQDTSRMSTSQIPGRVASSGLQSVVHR

VEGFR2 = VEGFR2 (Homo sapiens, UniProt P35968); design: purchased ReactionBiology; settings: VEGFR2; for % Enzyme Activity (relative to DMSO controls), Data 1: replicate Data 1; for % Enzyme Activity (relative to DMSO controls), Data 2: replicate Data 2;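 on all read-outs here: VEGFR2 was one member of a ten-kinase screening panel testing marketed FDA-approved drugs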
VEGFR2, sequence (P35968 20-1356): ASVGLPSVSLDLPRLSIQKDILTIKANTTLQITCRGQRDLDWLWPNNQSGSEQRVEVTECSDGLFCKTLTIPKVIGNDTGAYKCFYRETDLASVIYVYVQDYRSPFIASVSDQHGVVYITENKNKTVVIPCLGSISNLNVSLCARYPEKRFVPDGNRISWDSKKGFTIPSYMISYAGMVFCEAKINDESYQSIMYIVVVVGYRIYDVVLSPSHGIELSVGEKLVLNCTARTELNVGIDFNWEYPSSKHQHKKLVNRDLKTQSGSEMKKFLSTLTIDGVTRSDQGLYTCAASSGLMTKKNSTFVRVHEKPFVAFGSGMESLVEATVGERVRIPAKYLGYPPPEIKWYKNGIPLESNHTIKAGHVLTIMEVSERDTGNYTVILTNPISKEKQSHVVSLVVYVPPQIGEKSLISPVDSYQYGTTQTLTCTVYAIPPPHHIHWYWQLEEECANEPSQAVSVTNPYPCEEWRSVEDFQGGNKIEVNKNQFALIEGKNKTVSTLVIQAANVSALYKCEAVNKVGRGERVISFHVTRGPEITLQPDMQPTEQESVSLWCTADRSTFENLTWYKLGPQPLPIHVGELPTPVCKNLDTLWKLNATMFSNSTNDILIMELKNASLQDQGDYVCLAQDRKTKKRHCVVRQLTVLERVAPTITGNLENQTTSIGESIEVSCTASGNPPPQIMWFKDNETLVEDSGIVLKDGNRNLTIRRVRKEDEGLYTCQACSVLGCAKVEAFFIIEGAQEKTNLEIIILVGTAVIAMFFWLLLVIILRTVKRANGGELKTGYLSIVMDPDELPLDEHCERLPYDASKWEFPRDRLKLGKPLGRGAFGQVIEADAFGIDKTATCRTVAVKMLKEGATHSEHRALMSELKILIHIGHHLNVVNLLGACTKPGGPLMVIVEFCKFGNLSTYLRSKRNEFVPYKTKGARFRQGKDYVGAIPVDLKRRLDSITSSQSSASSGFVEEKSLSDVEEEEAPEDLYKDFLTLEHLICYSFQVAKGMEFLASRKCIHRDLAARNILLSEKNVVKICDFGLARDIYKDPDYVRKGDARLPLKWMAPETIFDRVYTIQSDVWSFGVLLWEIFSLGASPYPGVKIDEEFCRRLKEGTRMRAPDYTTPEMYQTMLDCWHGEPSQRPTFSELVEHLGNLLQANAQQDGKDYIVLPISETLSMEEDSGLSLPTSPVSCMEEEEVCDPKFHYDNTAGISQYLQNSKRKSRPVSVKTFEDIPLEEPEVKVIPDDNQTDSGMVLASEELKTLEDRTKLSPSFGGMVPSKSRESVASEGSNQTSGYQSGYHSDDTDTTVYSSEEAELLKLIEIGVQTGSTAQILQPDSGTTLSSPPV

T1 sequence (P53355 whole entry): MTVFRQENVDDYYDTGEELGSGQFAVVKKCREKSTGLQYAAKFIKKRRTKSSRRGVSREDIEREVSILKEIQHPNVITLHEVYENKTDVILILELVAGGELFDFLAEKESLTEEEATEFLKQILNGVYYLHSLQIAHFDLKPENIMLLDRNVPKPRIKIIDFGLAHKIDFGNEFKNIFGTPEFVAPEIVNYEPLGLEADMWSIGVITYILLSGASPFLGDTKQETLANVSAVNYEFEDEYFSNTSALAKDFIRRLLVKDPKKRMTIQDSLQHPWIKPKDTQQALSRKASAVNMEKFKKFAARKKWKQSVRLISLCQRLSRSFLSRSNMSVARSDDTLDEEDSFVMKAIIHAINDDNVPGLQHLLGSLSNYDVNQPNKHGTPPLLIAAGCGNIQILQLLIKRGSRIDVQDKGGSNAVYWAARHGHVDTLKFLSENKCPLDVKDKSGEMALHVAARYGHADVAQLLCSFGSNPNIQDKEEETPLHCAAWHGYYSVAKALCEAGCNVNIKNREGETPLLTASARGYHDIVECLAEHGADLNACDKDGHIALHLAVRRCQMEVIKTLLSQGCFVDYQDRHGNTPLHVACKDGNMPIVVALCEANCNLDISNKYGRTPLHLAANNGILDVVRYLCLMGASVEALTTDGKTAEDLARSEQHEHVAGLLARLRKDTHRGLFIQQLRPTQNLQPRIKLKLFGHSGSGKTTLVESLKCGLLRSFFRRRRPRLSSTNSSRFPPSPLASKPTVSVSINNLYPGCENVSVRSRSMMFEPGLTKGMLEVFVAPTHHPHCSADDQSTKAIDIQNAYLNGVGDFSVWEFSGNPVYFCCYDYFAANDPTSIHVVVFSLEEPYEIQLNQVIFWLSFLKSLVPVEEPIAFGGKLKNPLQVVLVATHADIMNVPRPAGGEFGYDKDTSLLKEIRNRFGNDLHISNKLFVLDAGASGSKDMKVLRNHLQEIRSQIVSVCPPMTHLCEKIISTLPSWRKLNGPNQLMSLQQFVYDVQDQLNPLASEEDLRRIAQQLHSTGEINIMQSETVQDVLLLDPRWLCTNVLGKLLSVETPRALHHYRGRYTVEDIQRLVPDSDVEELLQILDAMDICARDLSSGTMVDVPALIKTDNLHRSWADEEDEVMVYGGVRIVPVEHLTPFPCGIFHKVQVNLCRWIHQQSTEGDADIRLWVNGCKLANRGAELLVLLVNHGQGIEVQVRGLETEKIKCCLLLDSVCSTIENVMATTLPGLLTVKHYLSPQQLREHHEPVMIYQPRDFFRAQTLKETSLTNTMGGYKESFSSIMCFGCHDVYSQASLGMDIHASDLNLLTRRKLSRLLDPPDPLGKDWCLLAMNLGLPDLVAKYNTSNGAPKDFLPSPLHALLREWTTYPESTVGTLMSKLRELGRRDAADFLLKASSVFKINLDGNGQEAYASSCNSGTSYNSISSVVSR

Molecule	% Enzyme Activity (relative to DMSO controls), Average (DAPK1; 1 uM, Average) [%]	% Enzyme Activity (relative to DMSO controls), Data 1 (DAPK1; 1 uM, replicate Data 1) [%]	% Enzyme Activity (relative to DMSO controls), Data 2 (DAPK1; 1 uM, replicate Data 2) [%]	% Enzyme Activity (relative to DMSO controls), Average (DAPK1; 10 uM, Average) [%]	% Enzyme Activity (relative to DMSO controls), Data 1 (DAPK1; 10 uM, replicate Data 1) [%]	% Enzyme Activity (relative to DMSO controls), Data 2 (DAPK1; 10 uM, replicate Data 2) [%]	% Enzyme Activity (relative to DMSO controls), Data 2 (VEGFR2; 10 uM) [%]	also measured
COC(=O)N[C@H](C(=O)N[C@@H](Cc1ccccc1)[C@@H](O)CN(Cc1ccc(-c2ccccn2)cc1)NC(=O)[C@@H](NC(=O)OC)C(C)(C)C)C(C)(C)C [Atazanavir]	98.48	95.12	101.84	74.66	73.05	76.27	–	–
O=C1C(O)=C([C@H]2CC[C@H](c3ccc(Cl)cc3)CC2)C(=O)c2ccccc21 [Atovaquone]	96.25	96.85	95.64	91.80	90.59	93	–	–
OC(Cn1cncn1)(Cn1cncn1)c1ccc(F)cc1F [Fluconazole]	100.65	103.85	97.44	95.87	97.86	93.87	–	–
C[C@@H]1O[C@@H]1P(=O)(O)O [Fosfomycin]	101.25	100.97	101.52	92.74	95	90.48	–	–
COc1ccc2c(c1)c(CC(=O)O)c(C)n2C(=O)c1ccc(Cl)cc1 [Iomethacin]	–	–	–	–	–	–	98.78	% Enzyme Activity (relative to DMSO controls), Average (CK1d; 1 uM): 102.15%; % Enzyme Activity (relative to DMSO controls), Data 1 (CK1d; 1 uM): 102.08%; % Enzyme Activity (relative to DMSO controls), Data 2 (CK1d; 1 uM): 102.21%; % Enzyme Activity (relative to DMSO controls), Average (CK1d; 10 uM): 95.39%; % Enzyme Activity (relative to DMSO controls), Data 1 (CK1d; 10 uM): 98.78%; % Enzyme Activity (relative to DMSO controls), Data 2 (CK1d; 10 uM): 92%; % Enzyme Activity (relative to DMSO controls), Average (VEGFR2; 1 uM): 105.43%; % Enzyme Activity (relative to DMSO controls), Data 1 (VEGFR2; 1 uM): 105.61%; % Enzyme Activity (relative to DMSO controls), Data 2 (VEGFR2; 1 uM): 105.25%; % Enzyme Activity (relative to DMSO controls), Average (VEGFR2; 10 uM): 102.46%; % Enzyme Activity (relative to DMSO controls), Data 1 (VEGFR2; 10 uM): 106.14%
Cc1ccc(Nc2c(F)cccc2Cl)c(CC(=O)O)c1 [Lumiracoxib]	98.27	–	–	101.02	–	–	–	% Enzyme Activity (relative to DMSO controls), Average (CK1d; 10 uM): 99.41%
Cc1ccnc2c1NC(=O)c1cccnc1N2C1CC1 [Nevirapine]	112.57	101.89	123.25	95.31	95.47	95.14	–	–
NC[C@H](O)c1ccc(O)c(O)c1 [Norepinephrine]	102.77	101.72	103.82	92.90	93.2	92.59	–	–
N=C(N)c1ccc(OCCCCCOc2ccc(C(=N)N)cc2)cc1 [Pentamidine]	–	–	–	–	–	88.42	93.27	–
C=C[C@H]1CN2CC[C@H]1C[C@@H]2[C@@H](O)c1ccnc2ccc(OC)cc12 [Quinidine]	102.25	101.97	102.52	96.54	95.41	97.67	–	–
CN[C@H]1CC[C@@H](c2ccc(Cl)c(Cl)c2)c2ccccc21 [Sertraline]	–	–	–	–	–	–	104.52	% Enzyme Activity (relative to DMSO controls), Average (CK1d; 1 uM): 106.53%; % Enzyme Activity (relative to DMSO controls), Data 1 (CK1d; 1 uM): 105.95%; % Enzyme Activity (relative to DMSO controls), Data 2 (CK1d; 1 uM): 107.11%; % Enzyme Activity (relative to DMSO controls), Average (CK1d; 10 uM): 163.39%; % Enzyme Activity (relative to DMSO controls), Data 1 (CK1d; 10 uM): 106.22%; % Enzyme Activity (relative to DMSO controls), Data 2 (CK1d; 10 uM): 220.55%; % Enzyme Activity (relative to DMSO controls), Average (VEGFR2; 1 uM): 106.32%; % Enzyme Activity (relative to DMSO controls), Data 1 (VEGFR2; 1 uM): 107.12%; % Enzyme Activity (relative to DMSO controls), Data 2 (VEGFR2; 1 uM): 105.51%; % Enzyme Activity (relative to DMSO controls), Average (VEGFR2; 10 uM): 105.91%; % Enzyme Activity (relative to DMSO controls), Data 1 (VEGFR2; 10 uM): 107.3%
CN1CC(=O)N2[C@H](c3ccc4c(c3)OCO4)c3[nH]c4ccccc4c3C[C@@H]2C1=O [Tadalafil]	–	–	–	–	–	–	96.97	% Enzyme Activity (relative to DMSO controls), Average (CK1d; 1 uM): 103.78%; % Enzyme Activity (relative to DMSO controls), Data 1 (CK1d; 1 uM): 105.89%; % Enzyme Activity (relative to DMSO controls), Data 2 (CK1d; 1 uM): 101.67%; % Enzyme Activity (relative to DMSO controls), Average (CK1d; 10 uM): 108.37%; % Enzyme Activity (relative to DMSO controls), Data 1 (CK1d; 10 uM): 107.23%; % Enzyme Activity (relative to DMSO controls), Data 2 (CK1d; 10 uM): 109.5%; % Enzyme Activity (relative to DMSO controls), Average (VEGFR2; 1 uM): 102.42%; % Enzyme Activity (relative to DMSO controls), Data 1 (VEGFR2; 1 uM): 103.18%; % Enzyme Activity (relative to DMSO controls), Data 2 (VEGFR2; 1 uM): 101.65%; % Enzyme Activity (relative to DMSO controls), Average (VEGFR2; 10 uM): 97.95%; % Enzyme Activity (relative to DMSO controls), Data 1 (VEGFR2; 10 uM): 98.92%
Cn1c(=O)c2[nH]cnc2n(C)c1=O [Theophylline]	109.44	109.64	109.23	98.91	100.03	97.79	–	–
CN(C)CCOc1ccc(/C(=C(/CCCl)c2ccccc2)c2ccccc2)cc1 [Toremifene, reference compound]	–	–	–	–	–	–	–	remaining activity at 1 µM (DAPK1; 1 uM, Average, read-out: % Enzyme Activity (relative to DMSO controls), Average): 90.4%; remaining activity at 1 µM (DAPK1; 1 uM, replicate Data 1, read-out: % Enzyme Activity (relative to DMSO controls), Data 1): 70.4%; remaining activity at 1 µM (DAPK1; 1 uM, replicate Data 2, read-out: % Enzyme Activity (relative to DMSO controls), Data 2): 110%; remaining activity at 10 µM (DAPK1; 10 uM, Average, read-out: % Enzyme Activity (relative to DMSO controls), Average): 14.8%; remaining activity at 10 µM (DAPK1; 10 uM, replicate Data 1, read-out: % Enzyme Activity (relative to DMSO controls), Data 1): 14.9%; remaining activity at 10 µM (DAPK1; 10 uM, replicate Data 2, read-out: % Enzyme Activity (relative to DMSO controls), Data 2): 14.6%; remaining activity at 1 µM (DAPK1; compound 1μM, relative to DMSO controls, read-out: % Enzyme activity at 1μM): 90.4%; remaining activity at 10 µM (DAPK1; compound 10μM, relative to DMSO controls, read-out: % Enzyme activity at 10μM): 14.8%
CN1[C@@H]2CC[C@H]1C[C@@H](OC(=O)c1c[nH]c3ccccc13)C2 [Tropisetron]	100.48	103.12	97.84	91.18	92.93	89.43	93.19	% Enzyme Activity (relative to DMSO controls), Average (VEGFR2; 1 uM): 100.61%; % Enzyme Activity (relative to DMSO controls), Data 1 (VEGFR2; 1 uM): 99.56%; % Enzyme Activity (relative to DMSO controls), Data 2 (VEGFR2; 1 uM): 101.65%; % Enzyme Activity (relative to DMSO controls), Average (VEGFR2; 10 uM): 97.73%; % Enzyme Activity (relative to DMSO controls), Data 1 (VEGFR2; 10 uM): 102.27%
Acarbose	112.14	116.25	108.03	96.08	99.05	93.1	–	–
